Measured values from ChEMBL document CHEMBL1811863, “New 5-deoxyflavonoids and their inhibitory effects on protein tyrosine phosphatase 1B (PTP1B) activity” (Bioorg Med Chem, 2011).
pIC50: −log10 of the molar value.

What follows are molecules tested against T1, Tyrosine-protein phosphatase non-receptor type 1 (Homo sapiens, UniProt P18031) (assay: Inhibition of human recombinant PTP1B assessed as p-nitorphenol production after 30 mins).
T1 sequence (P18031 whole entry): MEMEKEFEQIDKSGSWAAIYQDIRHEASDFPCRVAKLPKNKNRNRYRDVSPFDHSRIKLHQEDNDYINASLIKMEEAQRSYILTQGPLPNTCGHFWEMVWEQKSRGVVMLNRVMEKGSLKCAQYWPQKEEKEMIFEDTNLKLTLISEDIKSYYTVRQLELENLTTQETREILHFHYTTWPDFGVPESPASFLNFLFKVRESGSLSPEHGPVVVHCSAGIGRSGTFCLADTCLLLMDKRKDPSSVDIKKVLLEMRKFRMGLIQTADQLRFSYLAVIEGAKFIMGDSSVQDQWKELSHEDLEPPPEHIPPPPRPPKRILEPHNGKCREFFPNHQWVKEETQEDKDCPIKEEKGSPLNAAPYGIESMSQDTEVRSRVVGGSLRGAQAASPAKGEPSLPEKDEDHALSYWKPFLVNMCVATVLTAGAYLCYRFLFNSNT

| Compound | pIC50 |
| --- | --- |
| COc1ccc(C2CC(=O)c3ccc(O)cc3O2)cc1CC=C(C)C (configuration not stated) | 4.78 |
| CC(C)=CCc1cc([C@@H]2CC(=O)c3ccc(O)cc3O2)cc2c1OC(C)(C)C=C2 [ABYSSINONES III] | 4.14 |
| COc1cc(OC)c([C@H]2COc3cc(O)ccc3C2=O)cc1CC=C(C)C [ERYTHRIBYSSIN E] | 4.82 |
| CC(C)=CCc1cc([C@@H]2CC(=O)c3ccc(O)cc3O2)cc2c1OC(C)(C)C(O)C2 (some centres not stated) [ERYTHRIBYSSIN G] | 4.45 |
| CC1(C)Oc2ccc([C@@H]3CC(=O)c4ccc(O)cc4O3)cc2CC1O (some centres not stated) [ERYTHRIBYSSIN I] | < 4.00 |
| COc1cc(O)c([C@]2(O)COc3cc(O)ccc3C2=O)cc1CC=C(C)C [ERYTHRIBYSSIN J] | 4.83 |
| O=Cc1cc([C@@H]2CC(=O)c3ccc(O)cc3O2)ccc1O [ERYTHRIBYSSIN K] | < 4.00 |
| O=C1C[C@@H](c2ccc(O)cc2)Oc2cc(O)ccc21 [LIQUIRTIGENIN] | < 4.00 |

Continued by rising pIC50, values first:

| pIC50 | Compound |
| --- | --- |
| 4.01 | COc1cc([C@@H]2CC(=O)c3ccc(O)cc3O2)ccc1O |
| 4.53 | CC(C)=CCc1cc([C@@H]2CC(=O)c3ccc(O)cc3O2)ccc1O [ABYSSINONE II] |
| 4.65 | CC(C)=CCc1cc([C@@H]2CC(=O)c3c(O)cc(O)cc3O2)cc(CC=C(C)C)c1O [ABYSSINONE V] |
| 4.76 | COc1cc(O)c(C2COc3cc(O)ccc3C2=O)cc1CC=C(C)C (configuration not stated) [PROSTRATOL C] |
